Measurements: patent publication US20240327417A1, “HETEROCYCLIC COMPOUNDS” (BeiGene Switzerland GmbH, priority 2021, published 2024)

Key:
[1] = molecular target: T1, Full length DGKα (D21-10BG, SignalChem) (Homo sapiens, UniProt P23743); experiment: Biochemical DGK IC50 assay (ADP-Glo, lipid micelle substrate), DGKα; conditions: 7.5 nM enzyme, 140 μM ATP, 80 μM DAG, 1 hour preincubation, 1 hour reaction, room temperature, read-out: IC50s for DGKα
T1 construct: Full length DGKα (D21-10BG, SignalChem); purchased SignalChem D21-10BG
Description: (§1) Enzymatic reactions of DGKζ, DGKα and DGKδ were performed using ADP-Glo assay with lipid micelle substrate. […] Full length DGKα (D21-10BG, SignalChem) and full length DGKδ (D23-10G, SignalChem) were purchased. Lipid micelle was prepared by dissolving DAG (Sigma, 317505-10MG) and PS (Sigma, P7769-100MG) with chloroform which was firtherly removed by rotary evaporation. The obtained residue was resuspended in buffer containing 25 mM HEPES pH 7.0, 0.5 mM EDTA and 160 mM Octyl β-D glucopyranoside by vigorous mixing and ultrasonic (IID, Scientz).
(§2) The inhibition activities testing for the compound disclosed herein were carried out at room temperature in assay buffer containing 50 mM HEPES, 10 mM MgCl2, 0.01% BSA, 0.1 mM Na3VO4, 0.005% Tween-20 and 0.01 mM CaCl2. Compounds in DMSO were dispensed into wells of a black 384 well plate (Corning 4514) using D300e digital dispenser (Tecan). The ranges of compounds final concentration were 1.55˜10000 nM or 23.3˜150000 nM. 3 μL 2× enzyme solution was added to wells. […] After 1 hour reaction, 5 μL ADP-Glo reagent (Promga V9101) was added and incubated for 40 minutes. 10 μL Kinase Detection reagent was added and incubated for 30 minutes. Luminescence was measured on a microplate reader (PHERAstar FSX, BMG labtech). The IC50s are calculated based on inhibition of enzyme activity in the presence of increasing concentrations of compounds.

[2] = molecular target: T2, Full length DGKζ (in-house protein M1-V929) (Homo sapiens, UniProt Q13574); experiment: Biochemical DGK IC50 assay (ADP-Glo, lipid micelle substrate), DGKζ; conditions: 0.5 nM enzyme, 140 μM ATP, 80 μM DAG, 1 hour preincubation, 1 hour reaction, room temperature, read-out: IC50s for DGKζ
T2 construct: His (N); TEV cleavage site (N); made in house; host or cells: Sf9 insect cells (baculovirus, Bac-to-Bac)
Description: as §1, §2
Human His-TEV-DGK-zeta-pFastBac1 and human baculovirus samples was generated using the Bac-to-Bac baculovirus expression system (Invitrogen) according to the manufacturer's protocol. The DNA used for expression of DGK-zeta, have SEQ ID Nos: 1. Baculovirus amplification was achieved using infected SF9 cells at 1:2000 virus/cells ratios, and grown for 96 hours at 27° C. post-transfected.
The expression scaled up for each protein was carried out in the […] from CORNING. 4 L of 3×10^6 cells/mL Sf9 cells (Expression System, Invitrogen) grown in SF900™ II SFM insect medium (Expression System) was infected with virus stock at 1:200 virus/cells ratio, and grown for 48 hours at 27° C. post-transfection. The infected cell culture was harvested by centrifugation at 6000 rpm for 15 min 4° C. in a SORVALL LYNX6000 centrifuge. The cell pellets were stored at −80° C.
Full length human DGKζ produced as described above, was purified from Sf9 baculovirus-infected insect cell paste. The cells were lysed using sonication method, and the lysates were clarified by centrifugation.

T2 sequence (Q13574 1-929 isoform Q13574-4): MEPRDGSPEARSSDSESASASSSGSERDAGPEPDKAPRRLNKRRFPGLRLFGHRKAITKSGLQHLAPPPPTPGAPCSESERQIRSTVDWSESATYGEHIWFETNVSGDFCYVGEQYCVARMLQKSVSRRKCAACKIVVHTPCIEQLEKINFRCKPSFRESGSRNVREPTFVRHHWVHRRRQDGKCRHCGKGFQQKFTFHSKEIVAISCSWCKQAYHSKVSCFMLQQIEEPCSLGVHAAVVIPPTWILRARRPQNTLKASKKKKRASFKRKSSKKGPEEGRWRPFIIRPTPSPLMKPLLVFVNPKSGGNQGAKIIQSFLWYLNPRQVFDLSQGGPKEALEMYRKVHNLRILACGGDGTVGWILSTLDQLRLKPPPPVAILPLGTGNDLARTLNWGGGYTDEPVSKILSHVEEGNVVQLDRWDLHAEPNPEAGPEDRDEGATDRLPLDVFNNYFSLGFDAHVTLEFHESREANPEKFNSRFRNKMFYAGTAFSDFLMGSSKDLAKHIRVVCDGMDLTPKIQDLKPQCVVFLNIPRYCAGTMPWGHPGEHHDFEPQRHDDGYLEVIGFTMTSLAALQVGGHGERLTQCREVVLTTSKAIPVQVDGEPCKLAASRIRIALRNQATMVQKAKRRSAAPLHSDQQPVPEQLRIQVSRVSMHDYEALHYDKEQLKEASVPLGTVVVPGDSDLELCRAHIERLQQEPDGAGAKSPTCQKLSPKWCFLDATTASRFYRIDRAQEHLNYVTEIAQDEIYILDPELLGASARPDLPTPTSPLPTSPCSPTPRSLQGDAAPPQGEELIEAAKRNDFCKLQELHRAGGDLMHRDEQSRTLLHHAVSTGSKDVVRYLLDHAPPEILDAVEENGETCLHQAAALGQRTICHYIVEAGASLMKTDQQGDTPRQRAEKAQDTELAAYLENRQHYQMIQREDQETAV
T1 sequence (P23743 whole entry): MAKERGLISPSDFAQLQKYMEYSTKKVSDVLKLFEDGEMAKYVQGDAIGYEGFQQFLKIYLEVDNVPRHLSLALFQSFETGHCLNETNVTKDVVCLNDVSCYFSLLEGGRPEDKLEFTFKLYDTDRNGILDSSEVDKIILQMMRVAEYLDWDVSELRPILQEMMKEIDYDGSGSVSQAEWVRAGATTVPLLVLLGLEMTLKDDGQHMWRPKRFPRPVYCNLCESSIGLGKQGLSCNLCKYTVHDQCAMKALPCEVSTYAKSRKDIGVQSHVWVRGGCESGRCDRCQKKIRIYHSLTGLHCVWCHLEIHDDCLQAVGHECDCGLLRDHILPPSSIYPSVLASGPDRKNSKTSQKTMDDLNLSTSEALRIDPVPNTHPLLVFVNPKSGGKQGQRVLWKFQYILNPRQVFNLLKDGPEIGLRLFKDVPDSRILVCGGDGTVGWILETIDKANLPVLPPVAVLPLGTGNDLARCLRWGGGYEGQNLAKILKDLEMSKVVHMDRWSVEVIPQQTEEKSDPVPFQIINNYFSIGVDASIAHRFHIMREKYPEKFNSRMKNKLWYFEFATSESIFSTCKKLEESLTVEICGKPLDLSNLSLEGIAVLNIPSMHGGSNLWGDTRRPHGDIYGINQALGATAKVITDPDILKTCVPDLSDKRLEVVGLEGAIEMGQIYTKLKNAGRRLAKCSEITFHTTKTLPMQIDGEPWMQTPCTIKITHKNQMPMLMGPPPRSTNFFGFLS

Compound | IC50 [1] [µM] | IC50 [2] [µM]
CC[C@H]1CN(C(C)c2ccc(C(F)(F)F)cc2)[C@H](CC)CN1c1cc(=O)n(C)n2cc(CC#N)nc12 (single isomer, unassigned) [Compound A91b] | 0.319 | 1.43
CC[C@H]1CN(C(C)c2ccc3nc(C)sc3n2)[C@H](CC)CN1c1cc(=O)n(C)n2cc(CC#N)nc12 (single isomer, unassigned) [Compound A58b] | 0.0133 | 0.0073
CC(C#N)c1cn2c(n1)c(N1C[C@@H](C)N(C(C)c3ccc4nccnc4c3)C[C@@H]1C)cc(=O)n2C (stereo partly drawn) [Compound A6, 2-(8-((2S,5R)-2,5-dimethyl-4-(1-(quinoxalin-6-yl)ethyl)piperazin-1-yl)-5-methyl-6-oxo-5,6-dihydroimidazo[1,2-b]pyridazin-2-yl)propanenitrile] | > 10 | > 10
CC[C@H]1CN(C(C)c2ccc3scnc3c2F)[C@H](CC)CN1c1cc(=O)n(C)n2cc(CC#N)nc12 (single isomer, unassigned) [Compound A66b] | 1.64 | 1.44
CC[C@@H]1CN(c2c(C#N)c(=O)n(C)n3cc(CC#N)nc23)[C@@H](C)CN1C(C)c1ccc(C2CC2)nc1 (single isomer, unassigned) [Compound A74b] | 1.43 | 1.55
CC[C@@H]1CN(c2cc(=O)n(C)n3cc(CC#N)nc23)[C@@H](C)CN1C(C)c1ccc2nc(C)sc2n1 (single isomer, unassigned) [Compound A84b] | 3.31 | 5.09
CC[C@@H]1CN(c2cc(=O)n(C)n3cc(CC#N)nc23)[C@@H](C)CN1C(C)c1ccc2nc(C)sc2c1F (single isomer, unassigned) [Compound A63a] | 0.683 | 0.006
CC[C@H]1CN(C(C)c2ccc3nc(C)sc3n2)[C@H](CC)CN1c1cc(=O)n(C)n2cc(C=NOC)nc12 (single isomer, unassigned) [Compound A124bc] | 0.078 | 8.1
CC[C@H]1CN(C(C)c2ccc3nccnc3c2)[C@H](CC)CN1c1cc(=O)n(C)n2cc(COC)nc12 (single isomer, unassigned) [Compound A8a] | 1.31 | 0.025
CC[C@H]1CN(C(C)c2ccc(C(C)(C)F)nc2)[C@H](CC)CN1c1cc(=O)n(C)n2cc(CC#N)nc12 (single isomer, unassigned) [Compound A46b] | 0.671 | 0.877
CC[C@@H]1CN(c2cc(=O)n(C)n3cc(CC#N)nc23)[C@@H](C)CN1C(C)c1ccc(C2CC2)nc1 (single isomer, unassigned) [Compound A43b] | 1.49 | > 10
CC[C@@H]1CN(c2c(C#N)c(=O)n(C)n3cc(CC#N)nc23)[C@@H](C)CN1C(C)c1ccc2nc(C)sc2n1 (single isomer, unassigned) [Compound A113b] | 0.651 | 2.91
CC#CCc1cn2c(n1)c(N1C[C@@H](CC)N(C(C)c3ccc4nc(C)sc4c3)C[C@@H]1C)cc(=O)n2C (stereo partly drawn) [Compound A69, 2-(but-2-yn-1-yl)-8-((2S,5R)-5-ethyl-2-methyl-4-(1-(2-methylbenzo[d]thiazol-6-yl)ethyl)piperazin-1-yl)-5-methylimidazo[1,2-b]pyridazin-6(5H)-one] | 0.263 | 1.44
CC[C@H]1CN(C(C)c2ccc(C(C)(C)C#N)nc2)[C@H](CC)CN1c1cc(=O)n(C)n2cc(CC#N)nc12 (stereo partly drawn) [Compound A40, 2-(5-(1-((2R,5S)-4-(2-(cyanomethyl)-5-methyl-6-oxo-5,6-dihydroimidazo[1,2-b]pyridazin-8-yl)-2,5-diethylpiperazin-1-yl)ethyl)pyridin-2-yl)-2-methylpropanenitrile] | 0.297 | 0.124
CC[C@H]1CN(C(C)c2ccc(C(C)(C)O)nc2)[C@H](CC)CN1c1cc(=O)n(C)n2cc(CC#N)nc12 (stereo partly drawn) [Compound A41, 2-(8-((2S,5R)-2,5-diethyl-4-(1-(6-(2-hydroxypropan-2-yl)pyridin-3-yl)ethyl)piperazin-1-yl)-5-methyl-6-oxo-5,6-dihydroimidazo[1,2-b]pyridazin-2-yl)acetonitrile] | 1.27 | 0.844
CC[C@H]1CN(C(C)c2ccc3ncsc3c2F)[C@H](CC)CN1c1cc(=O)n(C)n2cc(CC#N)nc12 (single isomer, unassigned) [Compound A62b] | 2.39 | 1.21
CC(c1ccc2c(c1)OC(F)(F)O2)N1C[C@H](C)N(c2cc(=O)n(C)n3cc(CC#N)nc23)C[C@H]1C (stereo partly drawn) [Compound A31, 2-(8-((2S,5R)-4-(1-(2,2-difluorobenzo[d][1,3]dioxol-5-yl)ethyl)-2,5-dimethylpiperazin-1-yl)-5-methyl-6-oxo-5,6-dihydroimidazo[1,2-b]pyridazin-2-yl)acetonitrile] | 1.97 | 1.13
CC[C@H]1CN(C(C)c2cc3sc(C)nc3cc2F)[C@H](CC)CN1c1cc(=O)n(C)n2cc(CC#N)nc12 (single isomer, unassigned) [Compound A61b] | 5.52 | 2
CC[C@H]1CN(C(C)c2ccc3ncsc3n2)[C@H](CC)CN1c1c(F)c(=O)n(C)n2cc(CC#N)nc12 (single isomer, unassigned) [Compound A81b] | – | 0.032
CC[C@H]1CN(C(C)c2ccc3ncsc3n2)[C@H](CC)CN1c1c(C#N)c(=O)n(C)n2cc(CC#N)nc12 (stereo partly drawn) [Compound A114, 2-(cyanomethyl)-8-((2S,5R)-2,5-diethyl-4-(1-(thiazolo[5,4-b]pyridin-5-yl)ethyl)piperazin-1-yl)-5-methyl-6-oxo-5,6-dihydroimidazo[1,2-b]pyridazine-7-carbonitrile] | 0.068 | 0.127
CC[C@@H]1CN(c2cc(=O)n(C)n3cc(C=NOC)nc23)[C@@H](C)CN1C(C)c1ccc2nccnc2c1 (single isomer, unassigned) [Compound A9c] | 2.17 | > 10
CC[C@@H]1CN(c2cc(=O)n(C)n3cc(CC#N)nc23)[C@@H](COC)CN1C(C)c1ccc2nc(C)sc2n1 (single isomer, unassigned) [Compound A108a] | 6.4 | > 10
CCC(c1ccc2nc(C)sc2n1)N1C[C@H](CC)N(c2cc(=O)n(C)n3cc(CC#N)nc23)C[C@H]1CC (single isomer, unassigned) [Compound A99a] | 0.196 | 0.132
CC(c1ccc2nccnc2c1)N1C[C@H](C)N(c2cc(=O)n(C)n3cc(CS(C)(=O)=O)nc23)C[C@H]1C (stereo partly drawn) [Compound A11, 8-((2S,5R)-2,5-dimethyl-4-(1-(quinoxalin-6-yl)ethyl)piperazin-1-yl)-5-methyl-2-((methylsulfonyl)methyl)imidazo[1,2-b]pyridazin-6(5H)-one] | > 10 | > 10
CC[C@H]1CN(C(C)c2cc3sc(C)nc3cc2F)[C@H](CC)CN1c1cc(=O)n(C)n2cc(CC#N)nc12 (single isomer, unassigned) [Compound A61a] | 0.4 | 0.126
CC[C@H]1CN(C(C)c2ccc3scnc3c2)[C@H](CC)CN1c1cc(=O)n(C)n2cc(CC#N)nc12 (single isomer, unassigned) [Compound A65a] | 0.047 | 0.007
CC(c1ccc2c(c1)OC(C)(C)CO2)N1C[C@H](C)N(c2c(F)c(=O)n(C)n3cc(CC#N)nc23)C[C@H]1C (single isomer, unassigned) [Compound A26a] | 2.89 | 0.019
CC[C@@H]1CN(c2cc(=O)n(C)n3cc(CC#N)nc23)[C@@H](C)CN1C(C)c1ccc2ncsc2n1 (single isomer, unassigned) [Compound A80b] | – | 8.16
CC[C@H]1CN(C(C)c2ccc3ncsc3n2)[C@H](CC)CN1c1c(F)c(=O)n(C)n2cc(CC#N)nc12 (single isomer, unassigned) [Compound A81a] | – | 1.26
CC[C@@H]1CN(c2cc(=O)n(C)n3cc(CC#N)nc23)[C@@H](C)CN1C(C)c1ccc2ncsc2n1 (single isomer, unassigned) [Compound A80a] | – | 0.044
